From ChEMBL document CHEMBL1201862, “PubChem BioAssay data set” (2004) come the findings set out here.

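96-well plates; 48 h exposure; 5 concentrations. Endpoints by linear interpolation between flanking doses. Not reached: highest tested concentration assigned. Here, GI50 denotes the concentration required for 50% inhibition of growth.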 Calls of active or inactive are those of the source. No stated cut-off is given here; in the data, active = GI50 up to about 1.1 µM and inactive = higher.

What all share (experiment): DTP human tumour cell line panel, 48 h
The test system of test [1] is 786-0.
In test [2] the test system is A498.
Test [3] deals with BT-549.
The subject of test [4] is DU-145.
In test [5] the test system is KM12.
Test [6] has as its system MCF7.
In test [7] the test system is MDA-MB-435.
Test [8] deals with MDA-N.
The test system of test [9] is OVCAR-3.
Test [10] relates to PC-3.
The subject of test [11] is SF-268.
Test [12] has as its system SF-295.
Test [13] relates to SK-MEL-28.
For test [14], the system named is SK-MEL-5.
The subject of test [15] is SK-OV-3.
For test [16], the system named is SN12C.
Test [17] has as its system SW-620.
The test system of test [18] is TK-10.
Test [19] deals with U-251.
Test [20] relates to UACC-62.

Take `O=C(c1ccccc1)C(C(=O)c1ccccc1)c1nc2ccccc2sc1=O`: the GI50 in test [1] was 12.1 µM (inactive); in test [2], > 25 µM (inactive); in test [3], 5.92 µM (inactive); in test [4], > 25 µM (inactive); in [5], 12.6 µM (inactive); in [6], 12.2 µM (inactive). The GI50 in [7] was 10.4 µM (inactive); in [8], > 25 µM (inactive); in test [9], > 25 µM (inactive); in test [10], 12.9 µM (inactive); in [11], > 25 µM (inactive); in test [12], 10.1 µM (inactive). Besides, the GI50 in test [13] was > 25 µM (inactive); in test [14] it was 15.6 µM (inactive); in [15] it was 6.46 µM (inactive); in [16], 6.22 µM (inactive); in [17] it was 15.9 µM (inactive); in test [18], 16.9 µM (inactive). Besides, the GI50 in test [19] is 5.73 µM (inactive); in [20], 7.11 µM (inactive).

With `CC(=O)CCCCC(=O)Nc1ccc(CC(NC(=O)OC(C)(C)C)C(=O)NCC(=O)OCc2ccccc2)cc1` (stereo not given), the GI50 is 21.7 µM (inactive) in [1]; 23.1 µM (inactive) in test [2]; 14.1 µM (inactive) in test [3]; 32.7 µM (inactive) in [4]; 29.4 µM (inactive) in test [5]; 24.7 µM (inactive) in test [6]. In addition, the GI50 in test [7] was 21.2 µM (inactive); in test [8], 21 µM (inactive); in [9], 14.8 µM (inactive); in [10], 14.4 µM (inactive); in test [11], 22.4 µM (inactive); in [12] it was 18.8 µM (inactive). Moreover, the GI50 in test [13] was 19.3 µM (inactive); in [14] it was 14.7 µM (inactive); in test [15], 23 µM (inactive); in test [16] it was 24.7 µM (inactive); in test [17], 16.6 µM (inactive); in [18], 63.1 µM (inactive). Moreover, the values for the GI50 in test [19] and in test [20] were 18.7 µM (inactive) and > 10 µM (inactive), respectively.

Take `CN1CC2=C(N=C(S)NC2c2ccccc2)/C(=C/c2ccccc2)C1` (stereo not given): the GI50 in [1] was > 100 µM (inactive); in test [2] it was 89.7 µM (inactive); in test [3] it was > 100 µM (inactive); in test [4], > 100 µM (inactive); in [5] it was 25.6 µM (inactive); in test [6], 40.4 µM (inactive). For the same compound, the GI50 was 46.8 µM (inactive) in test [7]; 35.7 µM (inactive) in [8]; 99.8 µM (inactive) in test [9]; 15 µM (inactive) in test [10]; > 100 µM (inactive) in [11]; 17.9 µM (inactive) in [12]. The GI50 in test [13] was 27.6 µM (inactive); in [14] it was 27.7 µM (inactive); in test [15], 22.2 µM (inactive); in [16], 51.8 µM (inactive); in [17], 71.1 µM (inactive); in test [18] it was 26 µM (inactive). Also, the values for the GI50 in test [19] and in test [20] were 54.5 µM (inactive) and 28.5 µM (inactive), respectively.

`c1ccc(C(Oc2noc3ccccc23)c2ccccc2)cc1`: the GI50 in test [1] is 48.8 µM (inactive); in test [2] it was 39 µM (inactive); in test [3] it was 32.1 µM (inactive); in [4] it was 34 µM (inactive); in test [5] it was 29.1 µM (inactive); in test [6] it was 37.3 µM (inactive). Besides, the GI50 was 20.3 µM (inactive) in [7]; 19.9 µM (inactive) in test [8]; 35.2 µM (inactive) in [9]; 34.4 µM (inactive) in test [10]; 65.8 µM (inactive) in test [11]; 33 µM (inactive) in [12]. Also, the GI50 is 65.5 µM (inactive) in [13]; 18.7 µM (inactive) in test [14]; 57 µM (inactive) in test [15]; 35.7 µM (inactive) in test [16]; 30.8 µM (inactive) in [17]; 47.6 µM (inactive) in test [18]. Moreover, the GI50 in [19] is 31.7 µM (inactive); in test [20], 31.8 µM (inactive).

For the compound `CC(C)(C)c1ccc(NS(=O)(=O)c2ccc(N)cc2)cc1`, the GI50 in [1] was 23 µM (inactive); in [2], 20.1 µM (inactive); in test [3], 23.4 µM (inactive); in test [4] it was 30.5 µM (inactive); in test [5], 36.6 µM (inactive); in test [6], 18.4 µM (inactive). The GI50 in test [7] was 29.9 µM (inactive); in test [8] it was 23.6 µM (inactive); in test [9], 2.76 µM (inactive); in test [10], 28.5 µM (inactive); in [11], 26.9 µM (inactive); in test [12], 1.9 µM (inactive). Moreover, the GI50 is 27.2 µM (inactive) in [13]; 17.9 µM (inactive) in test [14]; 3.29 µM (inactive) in [15]; 22.3 µM (inactive) in [16]; 26.9 µM (inactive) in [17]; 59 µM (inactive) in test [18]. Moreover, the values for the GI50 in test [19] and in test [20] were 19.3 µM (inactive) and 15.7 µM (inactive), respectively.

For the compound `c1cc2cc(Cc3ccc4[nH]ccc4c3)ccc2[nH]1`, the GI50 is 18.3 µM (inactive) in test [1]; 16.6 µM (inactive) in test [2]; 19.7 µM (inactive) in test [3]; 22.9 µM (inactive) in test [4]; 14.2 µM (inactive) in test [5]; 14.1 µM (inactive) in test [6]. The GI50 in test [7] was 16.4 µM (inactive); in [8], 12.9 µM (inactive); in test [9], 12.8 µM (inactive); in [10], 13.1 µM (inactive); in [11], 20.6 µM (inactive); in test [12], 31 µM (inactive). The GI50 was 26.4 µM (inactive) in [13]; 16.1 µM (inactive) in test [14]; 19.5 µM (inactive) in [15]; 17.4 µM (inactive) in test [16]; 23.1 µM (inactive) in [17]; 22.1 µM (inactive) in test [18]. Also, the GI50 in test [19] was 15.4 µM (inactive); in test [20], 17.2 µM (inactive).

`COc1ccc(C[C@H]2NC[C@H](OC(C)=O)[C@H]2OC(C)=O)cc1`: the GI50 was 0.0776 µM (active) in [1]; 0.302 µM (active) in test [2]; 0.171 µM (active) in test [3]; 0.0726 µM (active) in [4]; 0.192 µM (active) in test [5]; 0.14 µM (active) in [6]. Moreover, the GI50 in test [7] is 0.164 µM (active); in test [8], 0.133 µM (active); in test [9], 0.233 µM (active); in [10], 0.21 µM (active); in test [11], 0.0614 µM (active); in test [12], 0.183 µM (active). Moreover, the GI50 in test [13] is 0.143 µM (active); in test [14], 0.0665 µM (active); in [15], 0.138 µM (active); in [16] it was 0.124 µM (active); in [17] it was 0.186 µM (active); in [18], 0.31 µM (active). Further, the GI50 was 0.304 µM (active) in test [19] and 0.288 µM (active) in [20].

Consider `CCCOc1ccc(/C=C/C2=[N+](CCO)CCO2)cc1`, for which the GI50 in test [1], in test [2], in [3], in [4], in test [5] and in test [6] was > 100 µM (inactive) throughout. For the same compound, the GI50 in test [7], in test [8], in test [9], in test [10], in test [11] and in test [12] was > 100 µM (inactive) each time. The GI50 in test [13], in [14], in test [15], in test [16], in [17] and in [18] was > 100 µM (inactive) throughout. Moreover, the GI50 in test [19] and in test [20] was > 100 µM (inactive) throughout.

With `Nc1ccc2c(=S)c3ccccc3[nH]c2c1`, the GI50 in [1] is 38.5 µM (inactive); in [2], 61.7 µM (inactive); in test [3], 48.4 µM (inactive); in test [4], > 72.1 µM (inactive); in test [5], 44.4 µM (inactive); in [6] it was 20.1 µM (inactive). For the same compound, the GI50 is 42.2 µM (inactive) in test [7]; 46.8 µM (inactive) in [8]; 28.2 µM (inactive) in test [9]; 34 µM (inactive) in test [10]; 65.9 µM (inactive) in test [11]; 26.4 µM (inactive) in test [12]. Moreover, the GI50 is 43.1 µM (inactive) in [13]; 33.5 µM (inactive) in test [14]; 22.2 µM (inactive) in test [15]; > 77.6 µM (inactive) in test [16]; 32.5 µM (inactive) in test [17]; > 53.6 µM (inactive) in test [18]. Further, the GI50 was 28.4 µM (inactive) in [19] and 31.7 µM (inactive) in [20].

For `C=C1C(=O)OC2CC(=C)C3CC=C(C)C3CC12` (stereo not given), the GI50 in test [1] is 15.7 µM (inactive); in test [2], 53.6 µM (inactive); in [3], 14.7 µM (inactive); in test [4] it was > 10 µM (inactive); in test [5], 41.1 µM (inactive); in test [6], 20.1 µM (inactive). Also, the GI50 in [7] was 15.7 µM (inactive); in test [8] it was 16.4 µM (inactive); in [9], 27.5 µM (inactive); in test [10], 14.9 µM (inactive); in test [11], 34 µM (inactive); in test [12], 32.4 µM (inactive). Also, the GI50 is 23.1 µM (inactive) in test [13]; 27 µM (inactive) in [14]; 30.7 µM (inactive) in [15]; 16.2 µM (inactive) in test [16]; 15.7 µM (inactive) in test [17]; 18 µM (inactive) in test [18]. Moreover, the GI50 in test [19] is 15.3 µM (inactive); in test [20], 10.4 µM (inactive).
